From patent US8138174B2, “Compounds with a combination of cannabinoid CB1 antagonism and serotonin reuptake inhibition” (Solvay Pharmaceuticals B.V., priority 2007, dated 2012)
Where two headings read alike, the source gives them in different places.

Key:
[1] = target: human cannabinoid CB1 receptor (Homo sapiens, UniProt P21554); assay: In vitro affinity for human cannabinoid CB1 receptors ([3H]CP-55,940 binding, CHO cell membranes); details: radioligand [3H]-CP-55,940; membranes of CHO cells stably transfected with human CB1 receptor; read-out: CB1 receptor binding [3H]-CP-55,940 pKi (converted)
Description: In vitro affinity for human cannabinoid CB1 receptors
After incubation of a freshly prepared cell membrane preparation with the [^3H]-ligand, with or without addition of compounds of the invention, separation of bound and free ligand is performed by filtration over glassfiber filters. Radioactivity on the filter is measured by liquid scintillation counting.

[2] = target: T1, serotonin reuptake sites (Rattus norvegicus, UniProt P31652); assay: In vitro affinity for serotonin reuptake sites ([3H]-paroxetine binding, Habert 1985)
T1 construct: from tissue

[3] = radioligand [3H]-paroxetine, read-out: 5-HT reuptake binding [3H]-paroxetine pKi (converted)

T1 sequence (P31652 whole entry): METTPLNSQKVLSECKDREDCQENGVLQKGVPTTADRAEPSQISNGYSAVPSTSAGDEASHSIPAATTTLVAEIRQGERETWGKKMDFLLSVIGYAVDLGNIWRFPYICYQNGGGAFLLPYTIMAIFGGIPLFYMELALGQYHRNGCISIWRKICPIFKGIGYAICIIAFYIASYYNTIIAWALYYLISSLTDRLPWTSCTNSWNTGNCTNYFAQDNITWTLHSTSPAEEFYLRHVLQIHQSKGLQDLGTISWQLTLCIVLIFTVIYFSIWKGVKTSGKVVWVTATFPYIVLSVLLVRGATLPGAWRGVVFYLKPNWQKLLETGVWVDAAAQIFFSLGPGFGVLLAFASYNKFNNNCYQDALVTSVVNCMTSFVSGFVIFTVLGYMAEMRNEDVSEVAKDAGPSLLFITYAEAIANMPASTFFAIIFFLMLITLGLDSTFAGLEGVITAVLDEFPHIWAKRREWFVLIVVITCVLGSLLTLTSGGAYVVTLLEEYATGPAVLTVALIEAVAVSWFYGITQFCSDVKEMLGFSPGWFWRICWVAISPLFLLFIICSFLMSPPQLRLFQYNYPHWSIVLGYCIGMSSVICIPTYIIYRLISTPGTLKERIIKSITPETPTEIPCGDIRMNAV
Chain of human cannabinoid CB1 receptor (P21554 whole entry): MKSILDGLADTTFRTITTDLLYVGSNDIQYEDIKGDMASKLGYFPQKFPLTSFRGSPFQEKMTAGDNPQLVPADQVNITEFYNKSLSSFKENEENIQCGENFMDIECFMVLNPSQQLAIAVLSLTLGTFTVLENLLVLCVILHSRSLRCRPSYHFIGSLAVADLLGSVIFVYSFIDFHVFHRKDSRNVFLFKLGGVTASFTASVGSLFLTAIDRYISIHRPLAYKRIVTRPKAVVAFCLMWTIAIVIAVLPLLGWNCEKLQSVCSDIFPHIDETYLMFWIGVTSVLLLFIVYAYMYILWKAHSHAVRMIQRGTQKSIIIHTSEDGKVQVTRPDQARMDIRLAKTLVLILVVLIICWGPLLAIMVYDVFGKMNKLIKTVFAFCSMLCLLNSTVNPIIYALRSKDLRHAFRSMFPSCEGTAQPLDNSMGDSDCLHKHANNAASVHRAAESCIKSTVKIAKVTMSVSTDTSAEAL

CCc1c(C(=O)NCCCCCCC(=NOCCN)c2ccc(C(F)(F)F)cc2)nc(-c2ccccc2Cl)n1-c1ccc(Cl)cc1 (racemic) [Compound 2, 2-(2-Chlorophenyl)-1-(4-chlorophenyl)-5-ethyl-1H-imidazole-4-carboxylic acid [7-(2-amino-ethoxyimino)-7-[4-(trifluoromethyl)phenyl]heptyl]amide] was tested, and the Ki [1] was 39.8 nM and the Ki [2, 3] was 200 nM.
In the case of NCCO/N=C(/CCCCCCN/C(=N/S(=O)(=O)c1ccc(Cl)cc1)N1CC(c2ccccc2)C(c2ccc(Cl)cc2)=N1)c1ccc(C(F)(F)F)cc1 (stereo not shown) [Compound 1], the Ki [1] is reported as 251 nM, the “affinity for 5-HT reuptake sites / serotonin reuptake inhibition (in words)” value [2] is reported as “as potent a serotonin reuptake inhibitor as fluoxetine” and the Ki [2, 3] is reported as 15.8 nM.
CCc1c(C(=O)N2CCN(CCCCc3c[nH]c4ccc(F)cc34)CC2)nc(-c2ccccc2Cl)n1-c1ccc(Cl)cc1 [Compound 3, [2-(2-Chlorophenyl)-1-(4-chlorophenyl)-5-ethyl-1H-imidazole-4-yl] {4-[4-(5-flouro-1H-indol-3-yl)butyl]piperazin-1-yl}methanone] was tested, and the Ki [1] was 31.6 nM and the Ki [2, 3] was 20 nM.
For O=S(=O)(/N=C(/N1CCN(CCCCc2c[nH]c3ccc(F)cc23)CC1)N1CC(c2ccccc2)C(c2ccc(Cl)cc2)=N1)c1ccc(Cl)cc1 (stereo not shown) [Compound 4], the Ki [1] was 251 nM and the Ki [2, 3] was 25.1 nM.
In the case of CN=C(NS(=O)(=O)c1ccc(Cl)cc1)N1C[C@H](c2ccccc2)C(c2ccc(Cl)cc2)=N1 [SLV319], the Ki [2, 3] is reported as > 10000 nM.
CCc1c(C(=O)NN2CCCCC2)nc(-c2ccccc2Cl)n1-c1ccc(Cl)cc1 [WO 03/027076] was tested, and the “affinity for 5-HT reuptake sites / serotonin reuptake inhibition (in words)” value [2] was “completely inactive” and the Ki ([2]; read-out: 5-HT reuptake binding [3H]-paroxetine pKi (converted)) was > 31600 nM.
CN(C)CCC=C1c2ccccc2CCc2ccccc21 [amitriptyline] was tested, and the Ki [1] was > 10000 nM.
CN(C)CCCC1(c2ccc(F)cc2)OCc2cc(C#N)ccc21 (stereo not shown) [citalopram] was tested, and the Ki [1] was > 10000 nM.
With Fc1ccc2[nH]cc(CCCCN3CCNCC3)c2c1 [compound A] the Ki [1] was > 1000 nM and the Ki [2] was 1.26 nM.
With CN(C)CCCN1c2ccccc2CCc2ccccc21 [imipramine] the Ki [1] was > 1000 nM.
With c1ccc2c(CCC3CCNCC3)c[nH]c2c1 [indalpine] the Ki [1] was > 1000 nM and the “5-HT reuptake binding [3H]-paroxetine pKi” value ([2]; radioligand [3H]-paroxetine) was 8.6.
In the case of Fc1ccc([C@@H]2CCNC[C@H]2COc2ccc3c(c2)OCO3)cc1 [paroxetine], the Ki [1] is reported as > 1000 nM.
Work on Cc1c(C(=O)NN2CCCCC2)nn(-c2ccc(Cl)cc2Cl)c1-c1ccc(Cl)cc1 [rimonabant] yielded a Ki [2, 3] of 5010 nM.
For CN[C@H]1CC[C@@H](c2ccc(Cl)c(Cl)c2)c2ccccc21 [sertraline], the Ki [1] was > 10000 nM.
